In article PMC3814989, “Development of a Fluorescence Polarization Based High-Throughput Assay to Identify Casitas B-Lineage Lymphoma RING Domain Regulators” (PLoS ONE, 2013):
Like-named read-outs stand apart in the source and are kept apart here. Residues, ends and D or L forms follow the SMILES beside them.

Biological target: T1, c-Cbl (RING) protein (Homo sapiens, UniProt P22681)
T1 construct: c-Cbl (RING) protein including the linker and RING domain (codon 358–457) was tagged with glutathione S-transferase (GST); GST; made in house
T1 sequence (P22681 358-457): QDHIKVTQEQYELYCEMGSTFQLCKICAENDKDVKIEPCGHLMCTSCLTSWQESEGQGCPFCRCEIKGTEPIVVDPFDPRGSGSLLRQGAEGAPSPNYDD
Assay: Competitive FP assay/screen: displacement of probe 1 from c-Cbl (RING) protein
Assay type: binding
Conditions: for Outcome in detergent-present screen: detergent-present screen (0.01% Triton X-100); for Hit verification outcome: hits from detergent-free screen, more extensive competitive binding assays
Protocol: Assays were carried out in detergent-free buffer system (PBS, pH = 7.4) or detergent-present buffer system (0.01% Triton X-100 in PBS, pH = 7.4). All FP measurements were made on 384-well, low-volume, black, v-bottom polystyrene microplates (Corning, Shanghai, China) using the ZS-2 plate reader. The binding affinities of fluorescein-labeled peptides/regulators binding to c-Cbl (RING) protein were verified by titrating an increasing concentration of protein into a constant concentration of labeled peptides. […] The total fluorescence (TF) values were also measured. The change in polarization was graphed as a function of the log of the protein concentration, and the dissociation constant (Kd) and the change in mP (ΔmP) were obtained from the resulting sigmoidal curve. The concentrations of fluorescein-labeled peptide and proteins were optimized.
Unlabeled short peptide was titrated against the FITC-labeled peptide (100 nmol/L) and protein (3 µmol/L) mixture. Plates were incubated at room temperature for up to 3 hours or 30 min at different temperatures.
Master mixtures containing fluorescein-labeled probe and Cbl (RING) protein Cbl (RING) protein, 3 µmol/L and probe 1 at 100 nmol/L) in a reaction volume of 19 µl were prepared and loaded to plates. The library compounds (10 µmol/L – 0.078 µmol/L, half dilutions) were prepared separately and transferred into the assay plates. The first and last columns of each plate were used as positive and negative control wells. Wells containing the drug only were used as controls to detect auto-fluorescence of the compounds in the total fluorescence assay. After subtraction of the background signal, data was processed and the IC50 values were determined by non-linear least square fitting (four parameters) using SigmaPlot 11.0.
Hits were validated using the primary screening assay conditions in triplicate.

[1] = primary screen, detergent-free system, 10 to 0.078 µmol/L, 5% DMSO, read-out: IC50 Primary screen DF
[2] = primary screen, detergent-present system (0.01% Triton X-100), 10 to 0.078 µmol/L, 5% DMSO, read-out: IC50 Primary screen DP
[3] = validated in triplicate, detergent-free system, read-out: IC50 Validated DF
[4] = validated in triplicate, detergent-present system (0.01% Triton X-100), NR: no dose response, read-out: IC50 Validated DP

Row | Compound | Outcome in detergent-present screen | Hit verification outcome | IC50 [1] | IC50 [2] | IC50 [3] | IC50 [4] | other results
1 | CC(=O)N1CCC[C@H]1C(=O)N[C@@H](C)C(=O)N[C@@H](CCCCN)C(=O)N1CCC[C@H]1C(=O)N1CCC[C@H]1C(N)=O [Peptide 2, Ac-PAKPP-NH2] (Ac-PAKPP-NH2) | – | – | – | – | – | – | Effect of unlabeled peptide on FP values (detergent-free system, c-Cbl (RING) protein 3 µmol/L + 100 nmol/L probe 1): does not alter the FP values
2 | Tehmaglutin | negative | false positive hits | 5 µM | > 10 µM | 4.7 ± 0.4 µM | > 10 µM | IC50 (primary screen, detergent-free system, 10 to 0.078 µmol/L, 5% DMSO, listed as tehmaglutin, read-out: IC50 Primary screen DF): < 5 µM
3 | CO[C@]1(CC[C@@H](C)CO[C@@H]2O[C@H](CO)[C@@H](O)[C@H](O)[C@H]2O)O[C@H]2C[C@H]3[C@@H]4CC=C5C[C@@H](O[C@@H]6O[C@H](CO)[C@@H](O[C@@H]7O[C@@H](C)[C@H](O)[C@@H](O)[C@H]7O)[C@H](O)[C@H]6O[C@@H]6O[C@@H](C)[C@H](O)[C@@H](O)[C@H]6O)CC[C@]5(C)[C@H]4CC[C@]3(C)[C@H]2[C@@H]1C [Methylprotodioscin] | – | – | 4.8 µM | 4 µM | 4.2 ± 0.5 µM | 4 ± 0.8 µM | –
4 | O=c1c(O)c(-c2ccc(O)c(O)c2)oc2cc(O)cc(O)c12 [Quercetin] | negative | false positive hits | – | – | – | – | –
5 | C[C@]1(O)C[C@@H](O)[C@@H]2C=CO[C@@H](O[C@@H]3O[C@H](CO)[C@@H](O)[C@H](O)[C@H]3O)[C@@H]21 [Leonuride] | – | – | 3.5 µM | 3.8 µM | 4.6 ± 0.8 µM | 4.5 ± 1.1 µM | IC50 (primary screen, detergent-free system, 10 to 0.078 µmol/L, 5% DMSO, listed as leonuride, read-out: IC50 Primary screen DF): < 5 µM
6 | CC(=O)N1CCC[C@H]1C(=O)N[C@@H](Cc1ccccc1)C(=O)N[C@@H](CCCCN)C(=O)N1CCC[C@H]1C(=O)N1CCC[C@H]1C(N)=O [Peptide 1, Ac-PFKPP-NH2] (Ac-PFKPP-NH2) | – | – | – | – | – | – | IC50 (detergent-free system, c-Cbl (RING) protein 3 µmol/L + 100 nmol/L probe 1, read-out: IC50, unlabeled peptide competing with probe 1): 1.05 ± 0.09 µM; IC50 (detergent-present system (0.01% Triton X-100), c-Cbl (RING) protein 3 µmol/L + 100 nmol/L probe 1, read-out: IC50, unlabeled peptide competing with probe 1): 1.06 ± 0.09 µM
